# Measurements as given in patent US20260242372A1, “NOVEL IMIDAZOPYRIDINE AND PYRAZOLOPYRIDINE SULFONAMIDE DERIVATIVES” (Hoffmann-La Roche Inc., priority 2022, published 2026).
# Molecular target: human GPR17 short isoform (Homo sapiens, UniProt Q13304)
# Assay: GPR17 cAMP assay (hGPR17 cAMP, TR-FRET, antagonist mode)
# Format: cell-based
# Conditions: CHO-K1 cells stably expressing human GPR17 short isoform; EC80 of agonist MDL29,951; forskolin 15 μM; 30 min at room temperature
# Description: CHO-K1 cells stably expressing vector containing untagged human GPR17 short isoform (Roche) were cultured at 37° C./5% CO2 in DMEM (Dulbecco's Modified Eagle Medium): F-12 (1:1) supplemented with 10% foetal bovine serum and 400 μg/ml Geneticin.
# Changes in intracellular cyclic adenosine monophosphate (cAMP) levels were quantified using the Nano-TRF Detection Assay kit (Roche Diagnostics, Cat. No. 05214386001). This assay allows for direct cAMP quantification in a homogeneous solution. CAMP is detected based on time-resolved fluorescence energy transfer (TR-FRET) and competitive binding of ruthenylated cAMP and endogenous cAMP to an anti-cAMP monoclonal antibody labeled with AlexaFluor-700. The Ruthenium complex serves as the FRET donor and transfers energy to AlexaFluor-700. The FRET signal is inversely proportional to the CAMP concentration.
# CHO-GPR17S cells were detached with Accutase and resuspended in assay buffer consisting of Hank's Balanced Salt Solution (HBSS), 10 mM HEPES (4-(2-hydroxyethyl) piperazine-1-ethanesulfonic acid solution) and 0.1% bovine serum albumin (pH 7.4). The cells were seeded in black 384-well plates (Corning) at a density of 10′000 cells/20 μl assay buffer until the addition of compounds.
# Test antagonist compounds were serially diluted in dimethyl sulfoxide (DMSO) and spotted in 384-well plates. The compounds were then diluted in HBSS buffer supplemented with an EC80 concentration of MDL29,951 (3-(2-Carboxy-4,6-dichloroindol-3-yl) propionic acid) (GPR17 agonist) plus 3-Isobutyl-1-methylxanthine (IBMX) (0.5 mM final concentration) and added to the cells at room temperature. Forskolin (15 μM final concentration) was added 5 minutes after the test compounds and the cells were incubated at room temperature for 30 minutes. The assay was stopped by adding cAMP detection mix (containing detergents for cell lysis) for 90 minutes at room temperature.
# Cellular cAMP was measured using a Paradigm reader (Molecular Devices). The raw data was used to calculate the FRET signal based on the assay's P-factor as per cAMP kit instructions. The data was normalized to the maximal activity of a reference antagonist and dose response curves were fitted to the percent activity of the test compounds using a sigmoidal dose response model (Genedata Screener).
# Chain of human GPR17 short isoform (Q13304 29-367): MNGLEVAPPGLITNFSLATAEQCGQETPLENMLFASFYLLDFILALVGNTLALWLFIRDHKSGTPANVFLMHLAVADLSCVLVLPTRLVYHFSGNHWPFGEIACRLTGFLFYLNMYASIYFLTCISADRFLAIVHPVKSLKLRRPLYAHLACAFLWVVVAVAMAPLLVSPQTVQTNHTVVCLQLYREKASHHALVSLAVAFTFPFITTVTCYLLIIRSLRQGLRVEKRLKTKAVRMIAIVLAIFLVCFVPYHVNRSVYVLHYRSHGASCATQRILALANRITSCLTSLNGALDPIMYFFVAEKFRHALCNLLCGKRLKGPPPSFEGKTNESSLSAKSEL
row,Structure (SMILES),IC50 [nM]
1,"O=S(=O)(Nc1cc(F)c(OC(F)F)nc1OC(F)F)c1cnc2cc(Cl)ccn12 [Example 38, N-[2,6-bis(difluoromethoxy)-5-fluoro-3-pyridyl]-7-chloro-imidazo[1,2-a]pyridine-3-sulfonamide]",57
2,"COc1nc(NS(=O)(=O)c2cnc3cc(Cl)ccn23)c(F)cc1OC(F)F [Example 40, 7-chloro-N-[5-(difluoromethoxy)-3-fluoro-6-methoxy-2-pyridyl]imidazo[1,2-a]pyridine-3-sulfonamide]",64
3,"COc1nc(OCC(F)F)c(F)cc1NS(=O)(=O)c1cnc2n1CCC(C(F)(F)F)C2 (stereo not drawn) [Example 41, N-[6-(2,2-difluoroethoxy)-5-fluoro-2-methoxy-3-pyridyl]-7-(trifluoromethyl)-5,6,7,8-tetrahydroimidazo[1,2-a]pyridine-3-sulfonamide]",66
4,"COc1nc(OCC(F)F)c(F)cc1NS(=O)(=O)c1cnc2nc(Cl)ccn12 [Example 42, 7-chloro-N-[6-(2,2-difluoroethoxy)-5-fluoro-2-methoxy-3-pyridyl]imidazo[1,2-a]pyrimidine-3-sulfonamide]",72
5,"COc1nc(OC(F)F)c(F)cc1NS(=O)(=O)c1cnc2c(C#N)c(C)ccn12 [Example 43, 8-cyano-N-[6-(difluoromethoxy)-5-fluoro-2-methoxy-3-pyridyl]-7-methyl-imidazo[1,2-a]pyridine-3-sulfonamide]",75
6,"COc1nc(NS(=O)(=O)c2cnc3cc(Cl)ccn23)c(F)cc1C1CC1 [Example 44, 7-chloro-N-(5-cyclopropyl-3-fluoro-6-methoxy-2-pyridyl)imidazo[1,2-a]pyridine-3-sulfonamide]",76
7,"COc1nc(OCC(F)F)c(F)cc1NS(=O)(=O)c1cnc2n1CCC(C)(C)C2 [Example 45, N-[6-(2,2-difluoroethoxy)-5-fluoro-2-methoxy-3-pyridyl]-7,7-dimethyl-6,8-dihydro-5H-imidazo[1,2-a]pyridine-3-sulfonamide]",76
8,"COc1nc(NS(=O)(=O)c2cnc3cc(Br)ccn23)nc(OC)c1Br [Example 46, 7-bromo-N-(5-bromo-4,6-dimethoxy-pyrimidin-2-yl)imidazo[1,2-a]pyridine-3-sulfonamide]",82
9,"COc1nc(NS(=O)(=O)c2cnc3cc(Br)ccn23)c(F)cc1OCCF [Example 47, 7-bromo-N-[3-fluoro-5-(2-fluoroethoxy)-6-methoxy-2-pyridyl]imidazo[1,2-a]pyridine-3-sulfonamide]",83
10,"COc1nc(OCC(F)F)c(F)cc1NS(=O)(=O)c1cnc2nc(C)ccn12 [Example 48, N-[6-(2,2-difluoroethoxy)-5-fluoro-2-methoxy-3-pyridyl]-7-methyl-imidazo[1,2-a]pyrimidine-3-sulfonamide]",85

# Further compounds by falling IC50, results first:
row,IC50 [nM],Structure (SMILES)
1,56,"COc1ccn2c(S(=O)(=O)Nc3cc(F)c(OCC(F)F)nc3OC)cnc2n1 [Example 37, N-[6-(2,2-difluoroethoxy)-5-fluoro-2-methoxy-3-pyridyl]-7-methoxy-imidazo[1,2-a]pyrimidine-3-sulfonamide]"
2,52,"COc1nc(NS(=O)(=O)c2cnc3nc(C4CC4)ccn23)c(F)cc1CC(F)F [Example 36, 7-cyclopropyl-N-[5-(2,2-difluoroethyl)-3-fluoro-6-methoxy-2-pyridyl]imidazo[1,2-a]pyrimidine-3-sulfonamide]"
3,46,"COc1ccn2c(S(=O)(=O)Nc3nc(OC)c(CC#N)cc3F)cnc2c1 [Example 35, N-[5-(cyanomethyl)-3-fluoro-6-methoxy-2-pyridyl]-7-methoxy-imidazo[1,2-a]pyridine-3-sulfonamide]"
4,45,"N#CCc1cc(F)c(NS(=O)(=O)c2cnc3cc(Br)ccn23)cc1F [Example 34, 7-bromo-N-[4-(cyanomethyl)-2,5-difluoro-phenyl]imidazo[1,2-a]pyridine-3-sulfonamide]"
5,42,"COc1nc(OCC(F)F)c(F)cc1NS(=O)(=O)c1cnc2c(C#N)c(C3CC3)ccn12 [Example 33, 8-cyano-7-cyclopropyl-N-[6-(2,2-difluoroethoxy)-5-fluoro-2-methoxy-3-pyridyl]imidazo[1,2-a]pyridine-3-sulfonamide]"
